According to patent publication US20020052295A1, “Diacyl derivatives of propylene diamine having herbicidal activity” (priority 1999, published 2002):

Legend:
Conditions in all cases: lowest tested rate giving 80% or greater inhibition, approx. 14 days after planting and treating, greenhouse
PANDI = experiment: Pre-emergence herbicidal activity on PANDI (fall panicum); type: in vivo, Panicum dichotomiflorum
Description: (§1) All such uses, and the biological activity enabling such uses, are embraced by the term “herbicidal” herein. Tables 15 and 16 summarize results of tests conducted as described below to determine the pre-emergence herbicidal activity, in the form of a GR80 value, of illustrative compounds of this invention. […] Where herbicidal activity was evident but 80% inhibition was not achieved at the highest rate tested (typically 1000 g/ha), an asterisk (*) is shown in the following tables. Herbicidal activity evident in the form of symptoms of phytotoxicity, in the absence of at least 80% inhibition at any rate, is indicated in the tables by “phyto”. A blank cell in the following tables indicates no herbicidal or phytotoxic response at any rate tested.
(§2) The pre-emergence tests were conducted by the following procedure. Topsoil was sieved to pass through a 1.27 cm screen. Fertilizer was added to the topsoil and the mixture was then sterilized by heating. The topsoil mixture was placed in a pot and compacted to a depth of 1.0 to 1.25 cm from the top of the pot. Seeds of each of several monocotyledonous and dicotyledonous annual plant species were placed on top of the soil. Additional soil was subsequently placed over the seeds to level-fill the pot. A known amount of each test compound dissolved or suspended in an appropriate organic solvent was diluted with a 50:50 mix of acetone and water and applied to the surface of the soil. After treatment the plants were placed in a greenhouse with a 30/21° C. day/night temperature regime where they received 0.64 cm of overhead irrigation. All subsequent watering consisted of a light overhead mist and/or subirrigation as needed for germination and growth.
(§3) Approximately 14 days after planting and treating, the plants were observed and herbicidal efficacy recorded as percent inhibition by comparison with untreated plants.
(§4) The plant species usually regarded as weeds which were utilized in the tests are identified in the tables below according to the following legend, in which “d” indicates a dicotyledonous species and “m” a monocotyledonous species. All monocotyledonous species included in the tests herein are grasses.

DIGSA = experiment: Pre-emergence herbicidal activity on DIGSA (large crabgrass); type: in vivo, Digitaria sanguinalis
Description: as §1, §2, §3, §4

AMARE = experiment: Pre-emergence herbicidal activity on AMARE (redroot pigweed); type: in vivo, Amaranthus retroflexus
Description: as §1, §2, §3, §4

CHEAL = experiment: Pre-emergence herbicidal activity on CHEAL (common lambsquarters); type: in vivo, Chenopodium album
Description: as §1, §2, §3, §4

CIRAR = experiment: Pre-emergence herbicidal activity on CIRAR (canada thistle, seedling); type: in vivo, Cirsium arvense
Description: as §1, §2, §3, §4

PANMI = experiment: Pre-emergence herbicidal activity on PANMI (wild proso millet); type: in vivo, Panicum miliaceum
Description: as §1, §2, §3, §4

ABUTH = experiment: Pre-emergence herbicidal activity on ABUTH (velvetleaf); type: in vivo, Abutilon theophrasti
Description: as §1, §2, §3, §4

SOLNI = experiment: Pre-emergence herbicidal activity on SOLNI (black nightshade); type: in vivo, Solanum nigrum
Description: as §1, §2, §3, §4

DATST = experiment: Pre-emergence herbicidal activity on DATST (jimsonweed); type: in vivo, Datura stramonium
Description: as §1, §2, §3, §4

POROL = experiment: Pre-emergence herbicidal activity on POROL (common purslane); type: in vivo, Portulaca oleracea
Description: as §1, §2, §3, §4

SETFA = experiment: Pre-emergence herbicidal activity on SETFA (giant foxtail); type: in vivo, Setaria faberi
Description: as §1, §2, §3, §4

BRAPP = experiment: Pre-emergence herbicidal activity on BRAPP (broadleaf signalgrass); type: in vivo, Brachiaria platyphylla
Description: as §1, §2, §3, §4

CONAR = experiment: Pre-emergence herbicidal activity on CONAR (field bindweed); type: in vivo, Convolvulus arvensis
Description: as §1, §2, §3, §4

SORHA = experiment: Pre-emergence herbicidal activity on SORHA (johnsongrass, seedling); type: in vivo, Sorghum halepense
Description: as §1, §2, §3, §4

| Structure (SMILES) | Pre-emergence activity (GR80) on PANDI (PANDI) | Pre-emergence activity (GR80) on DIGSA (DIGSA) | Pre-emergence activity (GR80) on AMARE (AMARE) [g/ha] | Pre-emergence activity (GR80) on CHEAL (CHEAL) | Pre-emergence activity (GR80) on CIRAR (CIRAR) | Pre-emergence activity (GR80) on PANMI (PANMI) | Pre-emergence activity (GR80) on ABUTH (ABUTH) | Pre-emergence activity (GR80) on SOLNI (SOLNI) | Pre-emergence activity (GR80) on DATST (DATST) | Pre-emergence activity (GR80) on PORAL (POROL) [g/ha] | Pre-emergence activity (GR80) on SETFA (SETFA) | Pre-emergence activity (GR80) on BRAPP (BRAPP) | Pre-emergence activity (GR80) on CONAR (CONAR) | Pre-emergence activity (GR80) on SORHA (SORHA) |
| --- | --- | --- | --- | --- | --- | --- | --- | --- | --- | --- | --- | --- | --- | --- |
| COc1c(C)cccc1C(=O)NC(C)CNC(=O)c1cccc(C(F)(F)F)c1 (stereo not drawn) [Example 68] | phyto | phyto | – | – | – | – | – | – | – | – | – | – | – | – |
| CC(CNC(=O)c1cccc(C(F)(F)F)c1)NC(=O)c1cccc(C(F)(F)F)c1OCc1ccccc1 (stereo not drawn) [Example 20] | phyto | phyto | 1000 | phyto | phyto | phyto | – | – | – | – | – | – | – | – |
| CC(CNC(=O)c1cccc(F)c1)NC(=O)c1cccc(C(F)(F)F)c1F (stereo not drawn) [Example 142] | 500 g/ha | 250 g/ha | 125 | 500 g/ha | 64 g/ha | 1000 g/ha | 1000 g/ha | 750 g/ha | 750 g/ha | 125 | 125 g/ha | 750 g/ha | – | – |
| Cc1c(I)cccc1C(=O)NC(C)CNC(=O)c1cccc(C(F)(F)F)c1 (stereo not drawn) [Example 61] | 750 g/ha | 1000 g/ha | 750 | 1000 g/ha | 250 g/ha | – | * (Where herbicidal activity was evident but 80% inhibition was not achieved at the highest rate tested (typically 1000 g/ha), an asterisk (*) is shown) | 250 g/ha | 1000 g/ha | 500 | 1000 g/ha | – | – | – |
| Cc1c(Cl)cccc1C(=O)NCC(C)NC(=O)c1cccc(Cl)c1C (stereo not drawn) [Example 203] | – | – | – | 1000 g/ha | phyto | – | phyto | phyto | phyto | – | – | – | – | – |
| CC(CNC(=O)c1cccc(C(F)(F)F)c1)NC(=O)c1ccc(F)c(C(F)(F)F)c1 (stereo not drawn) [Example 6] | phyto | phyto | 1000 | – | – | phyto | – | – | – | – | phyto | – | – | – |
| CC(CNC(=O)c1cccc(Cl)c1)NC(=O)c1cccc(C(F)(F)F)c1F (stereo not drawn) [Example 145] | 500 g/ha | 250 g/ha | 125 | 125 g/ha | 125 g/ha | – | 500 g/ha | 1000 g/ha | – | 125 | 750 g/ha | – | – | – |
| O=C(NCC(CF)NC(=O)c1cccc(C(F)(F)F)c1)c1cccc(C(F)(F)F)c1 (stereo not drawn) [Example 10, N,N′-(3-fluoro-1,2-propanediylbis)-3-(trifluoromethyl) benzamide] | 1000 g/ha | phyto | 500 | 750 g/ha | phyto | phyto | – | – | phyto | 1000 | phyto | – | – | – |
| CC(CNC(=O)c1cccc(C(F)(F)F)c1)NC(=O)c1cc(C(C)(C)C)nn1C (stereo not drawn) [Example 262] | – | phyto | – | – | – | – | – | – | – | – | – | – | phyto | – |
| COc1c(C(=O)NC(C)CNC(=O)c2cccc(C(F)(F)F)c2)cccc1C(F)(F)F (stereo not drawn) [Example 17] | phyto | 1000 g/ha | 1000 | 1000 g/ha | – | – | – | phyto | phyto | 1000 | phyto | – | – | – |
| CC(CNC(=O)c1cccc(C(F)(F)F)c1)NC(=O)c1c(-c2ccc(F)cc2Cl)noc1C(F)(F)Cl (stereo not drawn) [Example 264] | 1000 g/ha | – | 250 | 500 g/ha | – | – | – | 250 g/ha | 1000 g/ha | 500 | – | – | – | – |
| CCOc1c(F)cccc1C(=O)N[C@H](C)CNC(=O)c1cccc(C(F)(F)F)c1 [Example 41, R-2-ethoxy-3-fluoro-N-[1-methyl-2-(3-trifluoromethyl)phenylcarbonylamino]ethylbenzamide] | 750 g/ha | – | 250 | 750 g/ha | – | phyto | – | phyto | 1000 g/ha | 500 | 1000 g/ha | – | – | phyto |
| Cc1c(C(=O)NC(C)CNC(=O)c2cccc(C(F)(F)F)c2)cccc1C(F)(F)F (stereo not drawn) [Example 16] | * (Where herbicidal activity was evident but 80% inhibition was not achieved at the highest rate tested (typically 1000 g/ha), an asterisk (*) is shown) | 750 g/ha | 250 | 1000 g/ha | 750 g/ha | 1000 g/ha | * (Where herbicidal activity was evident but 80% inhibition was not achieved at the highest rate tested (typically 1000 g/ha), an asterisk (*) is shown) | 500 g/ha | 1000 g/ha | – | 500 g/ha | – | – | – |
| CC(CNC(=O)c1cccc(C(F)(F)F)c1)NC(=O)c1cccc(Cl)c1 (stereo not drawn) [Example 43] | phyto | 750 g/ha | 250 | 500 g/ha | * (Where herbicidal activity was evident but 80% inhibition was not achieved at the highest rate tested (typically 1000 g/ha), an asterisk (*) is shown) | phyto | – | phyto | phyto | 500 | phyto | phyto | – | phyto |
